# According to patent publication US9725442B2, “Heterocyclic derivative having PGD2 receptor antagonist activity” (Shionogi & Co., Ltd., priority 2011, dated 2017):
# Target: human ether-a-go-go related gene (hERG) channel (Homo sapiens (Human), UniProt Q12809)
# Assay: hERG test (IKr, whole cell patch clamp in HEK293 cells)
# Format: cell-based
# Details: 1 μmol/L of the compound, HEK293 cells expressing hERG
# Text: For the purpose of assessing risk of an electrocardiogram QT interval prolongation, effects on delayed rectifier K+ current (IKr), which plays an important role in the ventricular repolarization process of the compound of the present invention, was studied using HEK293 cells expressing human ether-a-go-go related gene (hERG) channel.
# After a cell was retained at a membrane potential of −80 mV by whole cell patch clamp method using an automated patch clamp system (PatchXpress 7000A, Axon Instruments Inc.) and given leakage potential at −50 mV, IKr induced by depolarization pulse stimulation at +40 mV for 2 seconds and, further, repolarization pulse stimulation at −50 mV for 2 seconds was recorded. After the generated current was stabilized, extracellular solution (NaCl: 135 mmol/L, KCl: 5.4 mmol/L, […]: 0.3 mmol/L, CaCl2.2H2O: 1.8 mmol/L, MgCl2.6H2O: 1 mmol/L, glucose: 10 mmol/L, HEPES (4-(2-hydroxyethyl)-1-piperazineethanesulfonic acid): 10 mmol/L, pH=7.4) in which a compound of the present invention had been dissolved at an objective concentration was applied to the cell under the room temperature condition for 10 minutes. From the recording IKr, an absolute value of the tail peak current was measured based on the current value at the resting membrane potential using an analysis software (DataXpress ver. 2, Molecular Devices Corporation).
# Chain of human ether-a-go-go related gene (hERG) channel (Q12809 whole entry): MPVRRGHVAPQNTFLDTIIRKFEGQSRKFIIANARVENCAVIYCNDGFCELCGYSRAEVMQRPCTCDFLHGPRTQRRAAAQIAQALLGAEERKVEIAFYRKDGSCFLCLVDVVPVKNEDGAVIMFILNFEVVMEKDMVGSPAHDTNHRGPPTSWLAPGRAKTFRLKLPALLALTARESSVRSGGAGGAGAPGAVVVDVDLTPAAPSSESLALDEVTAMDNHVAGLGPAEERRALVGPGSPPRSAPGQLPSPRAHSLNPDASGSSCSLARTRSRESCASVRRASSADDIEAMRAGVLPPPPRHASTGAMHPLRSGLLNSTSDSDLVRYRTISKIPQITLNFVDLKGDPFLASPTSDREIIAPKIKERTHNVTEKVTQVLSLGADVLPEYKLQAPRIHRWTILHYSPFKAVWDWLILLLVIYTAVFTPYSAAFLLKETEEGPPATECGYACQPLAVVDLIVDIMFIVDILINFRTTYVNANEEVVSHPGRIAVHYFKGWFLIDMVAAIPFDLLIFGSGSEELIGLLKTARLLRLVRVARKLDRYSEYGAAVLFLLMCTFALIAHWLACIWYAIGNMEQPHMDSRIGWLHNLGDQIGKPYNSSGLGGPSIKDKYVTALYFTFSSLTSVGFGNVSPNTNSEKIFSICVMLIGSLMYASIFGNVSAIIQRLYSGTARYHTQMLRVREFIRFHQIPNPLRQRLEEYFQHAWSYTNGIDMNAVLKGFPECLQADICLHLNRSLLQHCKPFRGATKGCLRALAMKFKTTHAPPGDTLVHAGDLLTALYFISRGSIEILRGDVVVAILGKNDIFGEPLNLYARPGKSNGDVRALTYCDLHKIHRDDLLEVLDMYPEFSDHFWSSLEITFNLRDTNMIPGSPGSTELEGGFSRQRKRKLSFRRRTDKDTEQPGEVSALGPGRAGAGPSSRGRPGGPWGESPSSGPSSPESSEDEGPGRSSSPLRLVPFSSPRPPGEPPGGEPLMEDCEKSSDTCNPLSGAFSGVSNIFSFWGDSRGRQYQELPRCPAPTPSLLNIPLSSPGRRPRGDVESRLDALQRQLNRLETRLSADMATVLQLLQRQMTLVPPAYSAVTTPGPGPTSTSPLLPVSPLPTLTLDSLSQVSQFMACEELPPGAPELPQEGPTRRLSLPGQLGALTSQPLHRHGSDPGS
smiles,measurement,value
CC(C)Oc1ccc(S(=O)(=O)N2C[C@@H](C)[C@@H](n3nc(CC(=O)O)c4ccc(F)cc43)C2)cc1 [Compound I-37],% inhibition of IKr tail peak current,7.1%
